{
  "source": "the supplement of paper PMC10307832",
  "assay_in_all_cases": "relative viability (nuclei count vs DMSO), 5 days (fraction); higher = more cells survive",
  "key": {"[1]": {"compound": "CCc1cnn2c(NCc3ccc[n+]([O-])c3)cc(N3CCCC[C@H]3CCO)nc12 [Dinaciclib]", "method_in_brief": "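Lung cancer cell lines received five library-drug doses (not always all listed) spaced by √10, pinned on vehicle-anchored 1536-well plates after an overnight stay at 37 °C. Five days later, with no medium change, nuclei were Hoechst-stained, imaged at 4× and counted with MetaXpress. Viability is treated-well nuclei relative to vehicle-well nuclei, as a median across plates. Passing plates had control CV below 25% and at least one doubling.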"}, "[2]": {"compound": "CCc1cnn2c(NCc3ccc[n+]([O-])c3)cc(N3CCCC[C@H]3CCO)nc12 [Dinaciclib] + O=C(c1cc(Cc2n[nH]c(=O)c3ccccc23)ccc1F)N1CCN(C(=O)C2CC2)CC1 [Olaparib] (partner 8 µM)", "method_in_brief": "(§1)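 Lung cancer cell lines in 1536-well plates were dosed by pin tool the day after seeding, either with one drug alone or with a fixed anchor-drug dose plus five library-drug doses (not always all listed) in √10 steps. After 5 days, cells were fixed and their nuclei stained in one step (final 0.05% Triton X-100, 1% formaldehyde, 1 ug/ml Hoechst), then counted on 4× images. Relative viability is the nuclei count in treated wells divided by that in vehicle wells. Values are medians of duplicate plates.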"}, "[3]": {"compound": "CCc1cnn2c(NCc3ccc[n+]([O-])c3)cc(N3CCCC[C@H]3CCO)nc12 [Dinaciclib] + CS(=O)(=O)N1CCN(Cc2cc3nc(-c4cccc5[nH]ncc45)nc(N4CCOCC4)c3s2)CC1 [Pictilisib] (partner 1 µM)", "method_in_brief": "as §1"}, "[4]": {"compound": "CCc1cnn2c(NCc3ccc[n+]([O-])c3)cc(N3CCCC[C@H]3CCO)nc12 [Dinaciclib] + COc1cc2c(Oc3ccc(NC(=O)C4(C(=O)Nc5ccc(F)cc5)CC4)cc3F)ccnc2cc1OCCCN1CCOCC1 [Foretinib] (partner 0.25 µM)", "method_in_brief": "as §1"}, "[5]": {"compound": "CCc1cnn2c(NCc3ccc[n+]([O-])c3)cc(N3CCCC[C@H]3CCO)nc12 [Dinaciclib] + CC1(C)CCC(c2ccc(Cl)cc2)=C(CN2CCN(c3ccc(C(=O)NS(=O)(=O)c4ccc(N[C@H](CCN5CCOCC5)CSc5ccccc5)c(S(=O)(=O)C(F)(F)F)c4)cc3)CC2)C1 [Navitoclax] (partner 0.5 µM)", "method_in_brief": "as §1"}, "[6]": {"compound": "CCc1cnn2c(NCc3ccc[n+]([O-])c3)cc(N3CCCC[C@H]3CCO)nc12 [Dinaciclib] + CS(=O)(=O)CCNCc1ccc(-c2ccc3ncnc(Nc4ccc(OCc5cccc(F)c5)c(Cl)c4)c3c2)o1 [Lapatinib] (partner 2 µM)", "method_in_brief": "as §1"}, "[7]": {"compound": "CCc1cnn2c(NCc3ccc[n+]([O-])c3)cc(N3CCCC[C@H]3CCO)nc12 [Dinaciclib] + Cc1nc(NC(=O)N2CCC[C@H]2C(N)=O)sc1-c1ccnc(C(C)(C)C(F)(F)F)c1 [Alpelisib] (partner 2 µM)", "method_in_brief": "as §1"}, "[8]": {"compound": "CCc1cnn2c(NCc3ccc[n+]([O-])c3)cc(N3CCCC[C@H]3CCO)nc12 [Dinaciclib] + C[C@]1(O)C[C@@H](c2nc(-c3ccc4ccc(-c5ccccc5)nc4c3)c3c(N)nccn32)C1 [Linsitinib] (partner 1 µM)", "method_in_brief": "as §1"}, "[9]": {"compound": "CCc1cnn2c(NCc3ccc[n+]([O-])c3)cc(N3CCCC[C@H]3CCO)nc12 [Dinaciclib] + CC(C)C[C@H](NC(=O)[C@H](Cc1ccccc1)NC(=O)c1cnccn1)B(O)O [Bortezomib] (partner 0.002 µM)", "method_in_brief": "as §1"}, "[10]": {"compound": "CCc1cnn2c(NCc3ccc[n+]([O-])c3)cc(N3CCCC[C@H]3CCO)nc12 [Dinaciclib] + C[C@@H](Oc1cc(-c2cnn(C3CCNCC3)c2)cnc1N)c1c(Cl)ccc(F)c1Cl [Crizotinib] (partner 1 µM)", "method_in_brief": "as §1"}},
  "data": [
    {"cell line": "NCI-H1299", "values": [
      {"measurement": "relative viability", "setting": "[1]; 0.009487 µM", "result": 0.98},
      {"measurement": "relative viability", "setting": "[1]; 0.03 µM", "result": 0.371},
      {"measurement": "relative viability", "setting": "[1]; 0.09487 µM", "result": 0.121},
      {"measurement": "relative viability", "setting": "[1]; 0.3 µM", "result": 0.0997},
      {"measurement": "relative viability", "setting": "[2]; first compound 0.009487 µM", "result": 0.962},
      {"measurement": "relative viability", "setting": "[2]; first compound 0.03 µM", "result": 0.16},
      {"measurement": "relative viability", "setting": "[2]; first compound 0.09487 µM", "result": 0.0946},
      {"measurement": "relative viability", "setting": "[2]; first compound 0.3 µM", "result": 0.104},
      {"measurement": "relative viability", "setting": "[3]; first compound 0.009487 µM", "result": 0.416},
      {"measurement": "relative viability", "setting": "[3]; first compound 0.03 µM", "result": 0.0311},
      {"measurement": "relative viability", "setting": "[3]; first compound 0.09487 µM", "result": 0.0181},
      {"measurement": "relative viability", "setting": "[3]; first compound 0.3 µM", "result": 0.0214},
      {"measurement": "relative viability", "setting": "[4]; first compound 0.009487 µM", "result": 0.986},
      {"measurement": "relative viability", "setting": "[4]; first compound 0.03 µM", "result": 0.202},
      {"measurement": "relative viability", "setting": "[4]; first compound 0.09487 µM", "result": 0.104},
      {"measurement": "relative viability", "setting": "[4]; first compound 0.3 µM", "result": 0.088},
      {"measurement": "relative viability", "setting": "[5]; first compound 0.009487 µM", "result": 1.12},
      {"measurement": "relative viability", "setting": "[5]; first compound 0.03 µM", "result": 0.27},
      {"measurement": "relative viability", "setting": "[5]; first compound 0.09487 µM", "result": 0.107},
      {"measurement": "relative viability", "setting": "[5]; first compound 0.3 µM", "result": 0.107},
      {"measurement": "relative viability", "setting": "[6]; first compound 0.009487 µM", "result": 0.824},
      {"measurement": "relative viability", "setting": "[6]; first compound 0.03 µM", "result": 0.198},
      {"measurement": "relative viability", "setting": "[6]; first compound 0.09487 µM", "result": 0.137},
      {"measurement": "relative viability", "setting": "[6]; first compound 0.3 µM", "result": 0.124},
      {"measurement": "relative viability", "setting": "[7]; first compound 0.009487 µM", "result": 1.09},
      {"measurement": "relative viability", "setting": "[7]; first compound 0.03 µM", "result": 0.821},
      {"measurement": "relative viability", "setting": "[7]; first compound 0.09487 µM", "result": 0.15},
      {"measurement": "relative viability", "setting": "[7]; first compound 0.3 µM", "result": 0.188},
      {"measurement": "relative viability", "setting": "[8]; first compound 0.009487 µM", "result": 0.883},
      {"measurement": "relative viability", "setting": "[8]; first compound 0.03 µM", "result": 0.24},
      {"measurement": "relative viability", "setting": "[8]; first compound 0.09487 µM", "result": 0.103},
      {"measurement": "relative viability", "setting": "[8]; first compound 0.3 µM", "result": 0.0705},
      {"measurement": "relative viability", "setting": "[9]; first compound 0.009487 µM", "result": 1.05},
      {"measurement": "relative viability", "setting": "[9]; first compound 0.03 µM", "result": 0.216},
      {"measurement": "relative viability", "setting": "[9]; first compound 0.09487 µM", "result": 0.142},
      {"measurement": "relative viability", "setting": "[9]; first compound 0.3 µM", "result": 0.135},
      {"measurement": "relative viability", "setting": "[10]; first compound 0.009487 µM", "result": 0.709},
      {"measurement": "relative viability", "setting": "[10]; first compound 0.03 µM", "result": 0.681},
      {"measurement": "relative viability", "setting": "[10]; first compound 0.09487 µM", "result": 0.144},
      {"measurement": "relative viability", "setting": "[10]; first compound 0.3 µM", "result": 0.111}
    ]}
  ]
}
